ChEMBL document CHEMBL1201862, “PubChem BioAssay data set” (2004)
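Step 1: Grow cells in 96-well plates. Step 2: Expose to compound for 48 hours at 5 concentrations. Step 3: Interpolate endpoints linearly; if unreached, use highest concentration. GI50 marks 50% less growth.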 Active and inactive are the calls of the source. No stated cut-off is given here; in the data, active = GI50 up to about 1.1 µM and inactive = higher.

Assays:
Experiment in all cases: growth of human tumour cells (NCI), 48 h
ACHN = system: ACHN
EKVX = system: EKVX
HOP-62 = system: HOP-62
HOP-92 = system: HOP-92
NCI-H23 = system: NCI-H23
NCI-H522 = system: NCI-H522
OVCAR-3 = system: OVCAR-3
OVCAR-4 = system: OVCAR-4
SK-MEL-28 = system: SK-MEL-28
SK-MEL-2 = system: SK-MEL-2
SN12C = system: SN12C
SNB-75 = system: SNB-75
SW-620 = system: SW-620
U-251 = system: U-251
UACC-257 = system: UACC-257
SR = system: SR

Measured: GI50

COC(OC)c1cc2c(cc1C(=O)[C@@]13CCC[C@@H]1NC(=O)O3)OCO2
inactive: ACHN > 100 µM | EKVX > 100 µM | HOP-62 > 100 µM | HOP-92 > 100 µM | NCI-H23 78.5 µM | NCI-H522 > 100 µM | OVCAR-3 > 100 µM | OVCAR-4 > 100 µM | SK-MEL-28 > 100 µM | SK-MEL-2 > 100 µM | SN12C > 100 µM | SNB-75 49 µM | SW-620 > 100 µM | U-251 > 100 µM | UACC-257 > 100 µM

Cn1nc2ccccc2cc1=O
inactive: ACHN > 100 µM | EKVX > 100 µM | HOP-62 > 100 µM | HOP-92 > 100 µM | NCI-H23 > 100 µM | OVCAR-3 > 100 µM | OVCAR-4 > 100 µM | SK-MEL-28 > 100 µM | SK-MEL-2 > 100 µM | SN12C > 100 µM | SNB-75 59.2 µM | SW-620 > 100 µM | U-251 > 100 µM | UACC-257 > 100 µM

CCCCOP1(=O)C=C(C)C(=C(Cl)Cl)C(C)=C1 (stereo not given)
inactive: ACHN 6.43 µM | EKVX 47.4 µM | HOP-62 13.9 µM | HOP-92 1.5 µM | NCI-H23 12.4 µM | NCI-H522 5.45 µM | OVCAR-3 17.9 µM | OVCAR-4 23.8 µM | SK-MEL-28 8.17 µM | SK-MEL-2 1.98 µM | SN12C 7.31 µM | SNB-75 11.4 µM | SR 3.2 µM | SW-620 3.98 µM | U-251 6.97 µM | UACC-257 5.43 µM

Cc1nc(C(N)=S)sc1C(=O)/C=C/c1cccc(O)c1
inactive: ACHN 56.6 µM | EKVX > 100 µM | HOP-62 > 100 µM | HOP-92 60.4 µM | NCI-H23 > 100 µM | NCI-H522 90.4 µM | OVCAR-3 > 100 µM | SK-MEL-28 > 100 µM | SK-MEL-2 > 100 µM | SN12C > 100 µM | SNB-75 59.6 µM | SW-620 82.8 µM | U-251 > 100 µM | UACC-257 > 100 µM

CCOC(=O)c1cc(/C=C/C(C)=C/C(=O)OC)oc1-c1ccccc1
inactive: ACHN 71.8 µM | EKVX > 100 µM | NCI-H23 61.8 µM | NCI-H522 39.7 µM | OVCAR-3 73.5 µM | OVCAR-4 63.5 µM | SK-MEL-2 > 100 µM | SN12C 73.8 µM | SW-620 > 100 µM | U-251 50 µM | UACC-257 61.8 µM
